Results from article PMC9780888, “4-Isobutylmethcathinone—A Novel Synthetic Cathinone with High In Vitro Cytotoxicity and Strong Receptor Binding Preference of Enantiomers” (Pharmaceuticals, 2022).
Counter-ions that a name gives are not always drawn.

Target: T1, dopamine receptor DAR2 (Homo sapiens, UniProt P14416)
T1 construct: host or cells: HTLA (HEK 293-derived)
Assay: PRESTO-Tango β-arrestin 2 recruitment assay, DAR2
Format: cell-based
Details: for RLU value relative to control (transfected but untreated HTLA cells): DAR2, 500 nM
Text: However, binding to a specific receptor/transporter and, thus, the mechanism of action of a given cathinone always depends on the specific structure of the evaluated compound [37]. In this study, the binding activity of IBMcat and its enantiomers was verified by PRESTO-Tango (parallel receptor expression and screening via transcriptional output, with transcriptional activation following arrestin-2 translocation) assay using the HTLA cell line stably producing β-arrestin-2 in a fusion with TEV and luciferase production driven by tTA. For this purpose, the HTLA cells were transiently transfected with plasmid DNA encoding the dopamine receptors type 1-4 (DAR1-4), which also contain the TEV protease cleavage site followed by tTA at the 3’-end (DAR1-Tango, DAR2-Tango, DAR3-Tango, DAR4-Tango). In the case of the receptor activation by a ligand, in transfected cells, the receptor is desensitized by β-arrestin fused to TEV protease. This brings the TEV protease close to the site that specifically cleaves and, thus, the transcription factor can be cleaved. The transcription factor then translocates to the cell nucleus, in which it triggers the transcription of the target gene for luciferase production which can be determined by the light emitted from luciferin conversion to oxyluciferin. Here, the pronounced luminescence was recorded for all DAR1-4 types in HTLA cells treated with IBMCat and its enantiomers (Figure 8).
The HTLA cell line was used for the PRESTO-Tango β-arrestin recruitment assay. […]
The transfected HTLA cells were incubated for 24 h, and then 1 × 10^4 cells were seeded per well of a white 96-well clear bottom plate (Brand, Germany) in 40 μL of DMEM with 1% charcoal-stripped FBS (Thermo Fisher Scientific, USA). […] After 5 min., the luminescence was measured using a multi-mode microplate reader SpectraMax iD5 (Molecular Devices, San Jose, CA, USA) measuring the entire wavelength spectrum. All samples were measured in quadruplicates. The data were evaluated by Prism 7 software (GraphPad, San Jose, CA, USA).

T1 sequence (P14416 whole entry): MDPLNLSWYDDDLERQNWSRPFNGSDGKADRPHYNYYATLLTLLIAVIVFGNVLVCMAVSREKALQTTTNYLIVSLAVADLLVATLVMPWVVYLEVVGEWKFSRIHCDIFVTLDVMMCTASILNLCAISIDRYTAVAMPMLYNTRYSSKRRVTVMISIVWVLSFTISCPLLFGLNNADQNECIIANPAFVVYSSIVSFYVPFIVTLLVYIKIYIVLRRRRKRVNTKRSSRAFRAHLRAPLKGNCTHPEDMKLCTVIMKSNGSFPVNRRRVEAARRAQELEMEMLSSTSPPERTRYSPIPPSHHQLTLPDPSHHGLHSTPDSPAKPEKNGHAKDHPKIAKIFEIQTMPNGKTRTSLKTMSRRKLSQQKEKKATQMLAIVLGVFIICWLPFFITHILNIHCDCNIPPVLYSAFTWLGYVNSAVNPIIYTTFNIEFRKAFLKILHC

CNC(C)C(=O)c1ccc(CC(C)C)cc1.Cl (stereo not drawn) [IBMcat, 4-isobutylmethcathinone hydrochloride]
RLU value relative to control (transfected but untreated HTLA cells): approximately 5 fold

CN[C@H](C)C(=O)c1ccc(CC(C)C)cc1 [R-IBMCat]
effect on DAR2-expressing cells (0-500 nM): no effect

CN[C@@H](C)C(=O)c1ccc(CC(C)C)cc1 [S-IBMCat, (S)-4-isobutylmethcathinone hydrochloride]
RLU value relative to control (transfected but untreated HTLA cells): ~3 fold
